Data reported in paper PMC4840272 (Neoplasia (New York, N.Y.), 2016).
Where “and” joins values, the source holds several entries; their conditions need not be identical. Identical values can stand only once.

Tests used:
A549 cells = test: cells; type: cell-based, human; conditions: Homo sapiens, A549, 72 h
CL100 cells = test: cells; type: cell-based, human; conditions: Homo sapiens, 72 h
[1] = tissue distribution in SD rats; type: in vivo; conditions: 30 minutes after administration, 10 mg/kg, n = 6
CL141T cells = test: cells; type: cell-based, human; conditions: Homo sapiens, 72 h
H1650 xenograft = H1650 xenograft in nude mice; type: in vivo; conditions: i.v., BO-1978 40 mg/kg, gefitinib 10 mg/kg, daily for 5 consecutive days
[2] = stability in culture medium; type: physicochemical
KB = test: cytotoxicity in multiple drug-resistant and cisplatin-resistant cells; type: cell-based; conditions: Homo sapiens
CL97 cells = test: cells; type: cell-based, human; conditions: Homo sapiens, CL97, 72 h
[3] = complete blood count and blood chemistry test in ICR mice; type: in vivo; conditions: 40 mg/kg i.v.
PC9 cells = test: cells; type: cell-based, human; conditions: Homo sapiens, PC-9, 72 h
[4] = acute toxicity LD50 in ICR mice; conditions: male, mouse, in vivo
H1975 cells = test: cells; type: cell-based, human; conditions: Homo sapiens, NCI-H1975, 72 h
NTUB1 = test: cytotoxicity in multiple drug-resistant and cisplatin-resistant cells; type: cell-based
pEGFP-N1 plasmid DNA = test: alkaline gel shift assay of DNA cross-linking; type: biochemical; conditions: 0.125 to 2 μM, 2 hours, 37°C
CCRF/VBL = test: cytotoxicity in multiple drug-resistant and cisplatin-resistant cells; type: cell-based
PC9/gef B4 cells = test: cells; type: cell-based, human
H1650 cells = test: cells; type: cell-based, human; conditions: Homo sapiens, NCI-H1650, 72 h
MES-SA = test: cytotoxicity in multiple drug-resistant and cisplatin-resistant cells; type: cell-based; conditions: Homo sapiens
[5] = histopathological examination of major organs in ICR mice; type: in vivo; conditions: 40 mg/kg i.v., days 2 and 14, histopathology and blood tests
caspases 3 and 7 = test: Western blot of apoptotic executor proteins; type: cell-based, human; conditions: H460 cells
H460 cells [6] = test: cells; type: cell-based, human; conditions: Homo sapiens, NCI-H460, 72 h
H1650-Luc cells = test: orthotopic lung tumor model, IVIS; type: in vivo, nude mice; conditions: BO-1978 40 mg/kg, gefitinib 10 mg/kg, daily for 5 consecutive days
MES-SA/dx5 = test: cytotoxicity in multiple drug-resistant and cisplatin-resistant cells; type: cell-based
KB/vin10 = test: as above; type: cell-based
H460 xenograft = H460 xenograft in nude mice; type: in vivo
H460 cells [7] = test: cell cycle analysis by flow cytometry; type: cell-based, human; conditions: 1 to 4 μM, 24 to 72 hours
CL1-5 cells = test: alamarBlue in vitro cytotoxicity assay; type: cell-based, human; conditions: Homo sapiens, CL1-5, 72 h
11 NSCLC cell lines = test: cytotoxicity against batch of 11 NSCLC cell lines; type: cell-based; conditions: Homo sapiens, read-out: IC50 values against NSCLC cells (range)
CCRF-CEM = test: cytotoxicity in multiple drug-resistant and cisplatin-resistant cells; type: cell-based; conditions: Homo sapiens
PC9 xenograft = PC9 xenograft in nude mice; type: in vivo; conditions: i.v., BO-1978 40 mg/kg, gefitinib 10 mg/kg, daily for 5 consecutive days
[8] = whole-blood pharmacokinetics in SD rats; type: in vivo
PC9/gef B4 xenograft = PC9/gef B4 xenograft in nude mice; type: in vivo; conditions: i.v., BO-1978 40 mg/kg, gefitinib 10 mg/kg, daily for 5 consecutive days
NTUB1/P = test: cytotoxicity in multiple drug-resistant and cisplatin-resistant cells; type: cell-based
γH2AX, DNA-PK, and Rad51 = test: Western blot of DNA damage response; type: cell-based, human; conditions: H460 cells, 1 to 4 μM, 24 hours
H1299 cells = test: cells; type: cell-based, human; conditions: Homo sapiens, NCI-H1299, 72 h
topo II = topo II activity assay with nuclear extracts of treated H460 cells; type: cell-based, human; conditions: H460 cells treated 72 hours, nuclear extract, plasmid relaxation
topo I = topo I (Homo sapiens, UniProt P11387); test: topo I activity assay with nuclear extracts of treated H460 cells; type: cell-based; conditions: H460 cells treated 72 hours, nuclear extract, plasmid relaxation
H1975 xenograft = H1975 xenograft in nude mice; type: in vivo; conditions: i.v., BO-1978 40 mg/kg, gefitinib 10 mg/kg, daily for 5 consecutive days
stability in rat plasma = type: in vitro ADME
H460 cells [9] = test: modified comet assay of DNA ICLs; type: cell-based, human; conditions: 1, 5, and 10 μM, 2 hours
[10] = male, SD, rat, whole blood, iv, 10 mg/kg

topo I, sequence (P11387 whole entry): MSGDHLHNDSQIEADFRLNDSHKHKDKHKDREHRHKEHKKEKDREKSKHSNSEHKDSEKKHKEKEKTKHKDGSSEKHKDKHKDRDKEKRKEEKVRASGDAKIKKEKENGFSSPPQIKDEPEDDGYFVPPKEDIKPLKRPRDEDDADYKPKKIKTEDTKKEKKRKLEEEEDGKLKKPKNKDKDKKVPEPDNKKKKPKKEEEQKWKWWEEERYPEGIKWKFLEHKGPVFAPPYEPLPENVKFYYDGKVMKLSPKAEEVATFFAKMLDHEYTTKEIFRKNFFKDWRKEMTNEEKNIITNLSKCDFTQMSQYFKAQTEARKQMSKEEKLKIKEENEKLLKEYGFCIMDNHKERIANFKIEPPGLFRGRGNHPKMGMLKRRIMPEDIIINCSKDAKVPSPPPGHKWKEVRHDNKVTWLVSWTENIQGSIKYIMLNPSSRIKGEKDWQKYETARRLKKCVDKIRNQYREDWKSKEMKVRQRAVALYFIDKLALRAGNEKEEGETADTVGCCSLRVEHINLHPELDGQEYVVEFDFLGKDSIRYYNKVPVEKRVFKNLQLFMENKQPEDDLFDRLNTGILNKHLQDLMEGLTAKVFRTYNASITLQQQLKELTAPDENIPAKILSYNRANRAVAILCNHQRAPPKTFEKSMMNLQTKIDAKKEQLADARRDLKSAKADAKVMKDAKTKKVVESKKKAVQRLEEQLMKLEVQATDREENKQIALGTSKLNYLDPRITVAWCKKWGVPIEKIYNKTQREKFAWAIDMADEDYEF

## CCc1c(CO)c(CO)c2n1Cc1c(c3ccccc3n1C)C2 [BO-1978, [3-ethyl-6-methyl-6,11-dihydro-5H-indolizino[6,7-b]indole-1,2-diyl]dimethanol]
A549 cells
  IC50: 3.15 ± 1.2 µM
CL100 cells
  IC50: 1510 ± 300 nM
[1]
  concentration in Blood: 1.59 ± 0.48 μg/ml or μg/g
  concentration in Brain: 3.97 ± 0.96 μg/ml or μg/g
  concentration in Heart: 1.79 ± 0.72 μg/ml or μg/g
  concentration in Kidney: 2.19 ± 0.12 μg/ml or μg/g
  concentration in Liver: 10.71 ± 1.96 μg/ml or μg/g
  concentration in Lung: 3.13 ± 1.44 μg/ml or μg/g
  concentration in Spleen: 0.48 ± 0.08 μg/ml or μg/g
CL141T cells
  IC50: 1320 ± 470 nM
H1650 xenograft
  suppression of xenograft tumor growth: 30%
[2]
  half-life: 2210 ± 131 min
KB
  IC50: 1960 ± 390 nM
CL97 cells
  IC50: 1250 ± 180 nM
[3]; 14 Days
  ALP: 233.50 ± 36.74 U/l
  ALT: 44.87 ± 19.72 U/l
  AST: 86.14 ± 25.25 U/l
  BASO: 0.09 ± 0.03 10^9/l
  BUN: 23.95 ± 1.71 mg/dL
  CRE: 0.17 ± 0.05 mg/dL
  EOS: 0.12 ± 0.13 10^9/l
  HCT: 44.02 ± 1.18%
  HGB: 12.78 ± 0.42 g/dL
  LYM: 2.86 ± 0.88 10^9/l
  MCH: 16.38 ± 0.52 pg
  MCHC: 29.05 ± 0.46 g/dL
  MCV: 56.40 ± 1.69 fL
  MONO: 0.11 ± 0.09 10^9/l
  NEU: 0.82 ± 0.47 10^9/l
  PLT: 958.00 ± 178.31 10^9/l
  RBC: 7.81 ± 0.33 10^12/l
  WBC: 4.00 ± 0.97 10^9/l
[3]; 48 Hours
  ALP: 297.50 ± 72.11 U/l
  ALT: 156.25 ± 236.88 U/l
  AST: 220.27 ± 153.45 U/l
  BASO: 0.06 ± 0.03 10^9/l
  BUN: 19.48 ± 2.03 mg/dL
  CRE: 0.18 ± 0.15 mg/dL
  EOS: 0.05 ± 0.04 10^9/l
  HCT: 41.13 ± 1.95%
  HGB: 11.96 ± 0.53 g/dL
  LYM: 1.83 ± 1.17 10^9/l
  MCH: 16.75 ± 0.45 pg
  MCHC: 29.07 ± 0.40 g/dL
  MCV: 57.61 ± 1.27 fL
  MONO: 0.05 ± 0.04 10^9/l
  NEU: 0.45 ± 0.21 10^9/l
  PLT: 786.10 ± 90.60 10^9/l
  RBC: 7.14 ± 0.38 10^12/l
  WBC: 2.43 ± 1.19 10^9/l
PC9 cells
  IC50: 1410 ± 370 nM
[4]
  LD50: 93.7 mg/kg
H1975 cells
  IC50: 2340 ± 180 nM
NTUB1
  IC50: 1140 ± 320 nM
pEGFP-N1 plasmid DNA
  formation of DNA ICLs in plasmid DNA: formed DNA ICLs
CCRF/VBL
  IC50: 410 ± 30 nM
PC9/gef B4 cells; Homo sapiens, 72 h
  IC50: 1580 ± 330 nM
PC9/gef B4 cells; IC50 ratio, number in brackets
  resistance factor of PC9/gef B4 to PC9 cells: 1.12
H1650 cells
  IC50: 3.5 ± 0.1 µM
MES-SA
  IC50: 770 ± 80 nM
[5]
  toxic effects in the major organs: did not cause apparent toxic effects in the major organs except for slight and recoverable liver damage
Caspases 3 and 7
  cleavage of caspases 3 and 7: dose- and time-dependently induced cleavage of caspases 3 and 7
H460 cells [6]
  IC50: 1060 ± 110 nM
H1650-Luc cells
  orthotopic growth of H1650-Luc cells: effectively suppressed
MES-SA/dx5; Homo sapiens, MES-SA/Dx5
  IC50: 470 ± 120 nM
MES-SA/dx5; MES-SA/dx5 vs MES-SA
  resistance factor: 0.61 x
KB/vin10; Homo sapiens, KB-VIN10
  IC50: 1560 ± 510 nM
KB/vin10; KB/vin10 vs KB
  resistance factor: 0.79 x
H460 xenograft; H460 xenograft mice, BO-1978 40 mg/kg QDx5, cisplatin 6 mg/kg every 4 days x3
  body weight loss: negligible
H460 xenograft; i.v., BO-1978 40 mg/kg QDx5, cisplatin 6 mg/kg every 4 days x3
  H460 xenograft tumor size suppressed/reduced to: approximately 65%
H460 xenograft; nude mice, i.v., given for 5 consecutive days (QDx5)
  maximal tolerant dose: 40 mg/kg
H460 cells [7]
  cell cycle interference: S phase delay at 24 hours and then G2 arrest at 72 hours
CL1-5 cells
  IC50: 1470 ± 530 nM
11 NSCLC cell lines
  IC50: 1060 to 3500 nM
CCRF-CEM
  IC50: 460 ± 120 nM
PC9 xenograft
  suppression of xenograft tumor growth: 55%
[8]; cardiac output approximately 296 ml/min per kg
  systemic clearance as share of cardiac output of rats: approximately 19%
[8]; male SD rats, single i.v. 10 mg/kg
  systemic clearance: 56.24 ± 14.90 ml/min per kg
[8]; [10]
  AUC(0-t): 3140 ng·h/mL
  C0: 8630 ng/mL and 27.8 µM
  MRT: 27.3 min
  half-life: 23.5 ± 7.09 min
PC9/gef B4 xenograft
  suppression of xenograft tumor growth: 73%
NTUB1/P; NTUB1
  IC50: 1920 ± 390 nM
NTUB1/P; NTUB1/P vs NTUB1
  resistance factor: 1.68 x
γH2AX, DNA-PK, and Rad51
  expression of γH2AX, DNA-PK, and Rad51: dose-dependently increased the expression levels
H1299 cells
  IC50: 3.02 ± 0.65 µM
Topo II
  concentration at which topo II activity was significantly inhibited: greater than 0.5 μM
Topo I
  concentration at which topo I activity was significantly inhibited: greater than 0.5 μM
H1975 xenograft
  suppression of xenograft tumor growth: 26%
Stability in rat plasma
  half-life: 3.73 ± 0.234 days
H460 cells [9]
  tail moment in X-ray irradiated H460 cells (DNA ICLs): dose-dependently induced shortened tail moments
